From a melting point compilation (Tetko et al.; mined from patent text by program, amines drawn as free bases though some values may be those of a salt) come the findings set out here.

SMILES strings stand for the structures.

The term melting point denotes the temperature, or range, at which the solid turns liquid. As for `O=C1C=CC(O)(c2cccc3ccccc23)C=C1`, the melting point was 117 to 118 °C.
Then `O=C(O)c1ccc(COCc2csc3nc(C(=O)NCc4ccc(Cl)c(Cl)c4)[nH]c(=O)c23)cc1`, with 252 to 253 °C; and `Cc1ccc(S(=O)(=O)NC[C@H](C)NCc2c(Cl)ccc([N+](=O)[O-])c2Cl)cc1`, with 85 to 88 °C; and `Cc1ccc(C)n1CCNC(=O)CN1CCCC1=O`, with 109 to 111 °C.
In the case of `O=C1CCCN1[C@H]1CC[C@@H](C(=O)O)CC1` it was 188 °C; in that of `CCOC(CN1C(=O)C2=C(c3ccsc3)N(CC(OCC)OCC)C(=O)C2=C1c1ccsc1)OCC`, 166 to 167 °C; in that of `CCCCCn1cc(C(=O)O)c2ccc(Cl)cc21`, 152 to 154 °C.
Then `CN1CCN(c2nc3ccc(Br)c4c3n2CCC4)CC1`, with 132 to 133 °C; and `Cc1ccc(S(=O)(=O)OCC2CC(OS(=O)(=O)c3ccc(C)cc3)CN2S(=O)(=O)c2ccc(C)cc2)cc1` (centres undefined), with 134 to 135 °C.
Regarding `O=C1c2ccc(F)cc2CCc2cccnc21`, the melting point lay within 116 to 119 °C.
Then `CCNc1ccc2c(c1)CN(c1cc3c(cc1F)c(=O)c(C(=O)O)cn3CC)C2`, with 246 to 248 °C.
For the compound `O=C1CN(c2ccc(Cl)cc2)C(=S)N1c1ccc(Cc2ccccc2)cc1`, the melting point is 153 °C.
Compound `CCOC(=O)c1c(NCC(=O)OCCCC(=O)c2ccccc2)c2c(Cl)cc(Cl)cc2n1C(=O)OC(C)(C)C` had a melting point of 129 to 130 °C.
In the case of `CCOC(=O)c1cccc(-c2ccc3c(n2)C(O)CC3)c1` (centres undefined) it was 46 to 47 °C.
In the case of `Cc1ccc(=NC#N)n(-c2cccc(C(F)(F)F)c2)c1` it was 165 °C.
With `Cc1ccc(C2(O)C(c3ccccc3)SC3=NCCCCN32)s1` (centres undefined), the melting point lay in the range of 70 to 90 °C.
As for `COC(=O)c1ccc2c(Br)nn(C)c2c1`, the melting point is 122 to 125 °C.
For `CNCc1cccc2c(=O)c(C)c(-c3ccccc3)oc12`, the melting point is 97 to 99 °C.
In the case of `CC1(C)Oc2c(ccc3ccccc23)C2OC21` (centres undefined) it was 120 to 121 °C; in that of `O=C(NCc1ccncc1)c1cccnc1Oc1cccnc1`, 142 to 144 °C.
Then `CCOC(=O)C1CCCN(C(=O)CCn2cnc3c(=O)[nH]cnc32)C1` (centres undefined), with 171 to 175 °C; and `Nc1nc2ccccc2c2c1ncn2CCCCNC(=O)c1cccc(C(=O)c2ccccc2)c1`, with 103 to 105 °C.
In the case of `Cc1cc(OCc2ccccc2)c2cc(C(N)=O)[nH]c2c1`, the melting point was in the range of 185 to 187 °C.
Then `Cc1c(C2=CCC(c3ccccc3)(N(C)C)CC2)[nH]c2ccc(F)cc12` (centres undefined), with 171 to 175 °C; and `C#Cc1ccc2c(c1)C(c1ccccc1)=NCc1c(C(=O)NC)ncn1-2`, with 237 to 238 °C.
Then `C=C(C)C(=O)OCCCCc1ccc(OC(F)(F)c2c(F)cc(-c3ccc(CCCCOC(=O)C(=C)C)cc3F)cc2F)cc1`, with 128 °C.
In the case of `Cc1ccc(C(=O)NN=C(N)CS(=O)(=O)c2ccccc2)o1` it was 219 to 220 °C; in that of `CC(=O)N(C)c1ccc(Cl)c(COc2cccn3c(Br)c(C)nc23)c1Cl`, 201 to 204 °C; in that of `CC(C)C(C)(C#N)N1C(=O)c2cc3ccccc3nc2C1=O` (centres undefined), 195 to 196 °C.
`CCOC(=O)c1cn(C2CCCCC2)nc1O` had a melting point of 91 to 92 °C.
Then `CCCc1nc(-c2ncn3c2COC(=O)c2c(Cl)cccc2-3)no1`, with 130 to 132 °C; and `CCOP(=O)(OCC)C(CCc1cc(C)nc2c(C#N)c(C)nn12)P(=O)(OCC)OCC`, with 49 to 50 °C; and `COc1cc(OC)c(C2=NC(C)(C)CO2)cc1OC`, with 84 to 86 °C.
Turning to `CN1CCc2nc3cc(Cl)ccc3c(Nc3ccccc3)c2C1`, the melting point fell in the range of 197 to 198 °C.
In turn, `O=C1Cc2cccc(S(=O)(=O)c3ccc(Cl)cc3)c2N1` gave a melting point of 218 to 221 °C.
Then `CC(C(=O)O)c1cccc(Sc2ccccc2Cl)c1O` (centres undefined), with 143 to 145 °C; and `Cc1cc(C(=O)Nc2cc(Oc3ccc4nc(NC(=O)C5CC5)cn4n3)ccc2F)n(C)n1`, with 237 °C; and `Nc1c(OCc2ccccc2)cc(Br)cc1[N+](=O)[O-]`, with 90 °C.
In the case of `COc1cc(OC)c(-c2cccs2)cc1/C=C/C(=O)c1ccccc1C(=O)O` it was 196 to 198 °C; in that of `CNC(=O)ON=C(C(=O)N(C)C)C(C)=NOC`, 172 to 173 °C; in that of `NC1=NC(c2cccc(Oc3ccccc3)c2)N(c2cccc(Cc3ccccc3)c2)C(N)=N1` (centres undefined), 165 to 167 °C.
Take `CCc1cccc(-n2cnc(-c3cnc4[nH]cc(C(=O)N[C@@H](C)C(C)(C)C)c4n3)c2)c1`: the melting point lay in the range of 284 to 287 °C.
Then `COc1cccc2c1nc(C(F)F)n2-c1nc(N2CCOCC2)c2cnn(C3CCN(S(=O)(=O)CCl)CC3)c2n1`, with 250 to 253 °C.
In the case of `CC1CC(C)(C)C(=O)C=C1Cc1ccc(Cl)cc1` (centres undefined) it was 76 to 77 °C.
Then `CC1CCc2ccc(CC(=O)O)cc2C(=O)C1` (centres undefined), with 105 to 107 °C.
For `O=C1C(c2cc3c(cc2O)OCC3)c2cc(F)ccc2N1C(c1ccccc1)c1ccccc1` (centres undefined), the melting point lay within 179 to 181 °C.
Then `O=C(O)Cc1c(C(=O)c2ccc(Br)cc2)[nH]c2cc(Cl)ccc12`, with 199 to 201 °C; and `Oc1ccccc1Nc1nccc(-c2cccnc2)n1`, with 166 to 169 °C; and `C=CC1=C(C(=O)O)C(C(F)(F)F)Oc2ccc(Cl)cc21` (centres undefined), with 143 to 145 °C.
`CC(C)N(C(=O)c1ccc(N)cc1)C(C)C` yielded a melting point of 170 °C.
In the case of `COCn1c(C)nc2c(O)cc(C(=O)N(C)C)cc21` it was 173 to 183 °C; in that of `O=C(CC1CCCCC1)Nc1c(Cl)ccc2nc(N3CC[C@@H](O)C3)ccc12`, 219 to 221 °C; in that of `CC(C)(C)c1cc(C=C2SCN(CC(N)=O)C2=O)cc(C(C)(C)C)c1O`, 232 °C.
In the case of `CCN1CCc2cc(Nc3ncc(Cl)c(Nc4ccccc4C(=O)NC)n3)c(OC)cc2CC1=O` it was 120 to 132 °C; in that of `CCN(CC)c1c(C(=O)O)n(-c2ccccc2)c2ccc(OC)cc12`, 141 to 143 °C.
In the case of `O=[N+]([O-])c1ccc(OCCCCl)cc1` it was 37 to 39 °C; in that of `Cc1c[nH]c2c1C(=O)CC(c1cccs1)C2` (centres undefined), 195 to 196 °C; in that of `CN1CCN(CCCNc2ncc3c(n2)-c2ccccc2C(c2ccc(N)cc2)C3)CC1` (centres undefined), 75 to 77 °C.
In the case of `CC(=O)OCC(=O)Nc1ccc(C(CC2CCCC2)C(=O)Nc2nccs2)cc1` (centres undefined), the melting point was in the range of 90 to 95 °C.
Then `CCCCC(CNC(C)=O)(Cn1cncn1)c1ccccc1` (centres undefined), with 112 to 115 °C; and `N#Cc1nn(-c2c(Cl)cc(C(F)(F)F)cc2Cl)c(N)c1-c1cccc(F)c1`, with 164 °C; and `COc1ccc(CCNC(=O)CCC2(c3ccc(OC)c(OC)c3)SCCCS2)cc1OC`, with 135 to 136 °C.
In the case of `CN(C)Cc1nnc(CO)n1-c1ccc(Cl)cc1C(=O)c1ccccc1` it was 138 to 141 °C.
`CC(=O)N1CCSc2cccc(C)c2C1` registered a melting point of 71 to 73 °C.
Then `CCOCC(OC(C)=O)C1CC(=O)C2(C)CCC3C(CCC4=CC(=O)C=C(C)C43C)C12` (centres undefined), with 155 to 157 °C; and `COC(=O)CCn1c(=O)n(CCN2CCN(c3cccc(Cl)c3)CC2)c(=O)c2cscc21`, with 150 °C.
In the case of `CN(CC(=O)O)C(=O)Nc1ccc(Cl)c(Cl)c1` it was 103 to 105 °C; in that of `Cc1cccc2c(-c3ccc(Br)cc3)nccc12`, 126 to 128 °C; in that of `CCC(=O)Oc1cc(OC)cc(OC)c1C(=O)C=Cc1ccc(Cl)cc1`, 136 °C.
In the case of `Cc1c(OCc2ccccc2)c(=O)ccn1CCOC(=O)C(C)(C)C` it was 103 to 106 °C.
`CCCOC(=O)c1cn(C(C)(C)C)c2ncc([N+](=O)[O-])cc12`: the melting point was in the range of 116 to 120 °C.
`CN(c1ccoc1)c1n[nH]c2ncnc(Nc3cccc(Cl)c3)c12` came in with a melting point of 207 to 209 °C.
Then `COc1ccc(C(O)(Cc2ccccc2)c2ccccc2)cc1` (centres undefined), with 111 to 112 °C.
Then `CC1(C)OC(=O)C(Oc2ccc(Cl)nc2)=C1c1ccc(S(C)(=O)=O)cc1`, with 196 to 197 °C.
Then `CC(O)c1ccc2cc(S(N)(=O)=O)sc2c1` (centres undefined), with 134 to 135 °C; and `N#Cc1cc(Oc2ccc(Cl)cc2)ccc1N`, with 116 to 118 °C.
Consider `CC(C)Oc1c(C(=O)Nc2nnn[nH]2)sc2c1CN(C(=O)OC(C)(C)C)CC2`, for which the melting point fell in the range of 189 to 191 °C.
Turning to `CCOP(=O)(CC(=O)Nc1cc2c(Nc3ccc(F)c(Br)c3)ncnc2cn1)OCC`, the melting point is 214 to 217 °C.
`CCOC(=O)C1=CCCCC1S(=O)(=O)Nn1cccc1Cl` (centres undefined): the melting point lay in the range of 60 to 61 °C.
In the case of `Fc1cc(-c2cc(C(F)(F)F)n3cnc(-c4ccncc4)c3n2)ccc1C(F)(F)F` it was 267 °C; in that of `CC(=O)c1cccc(-c2ccc(OC3SCC(O)C(O)C3O)cn2)c1` (centres undefined), 159 to 163 °C; in that of `O=C(c1cccs1)c1cnn2c(-c3cccc(NCc4ccoc4)c3)ccnc12`, 140 to 144 °C.
Then `Cc1ccc(N2CCN(Cc3ccc4c(c3)NC(=O)CO4)CC2)cc1C`, with 148 to 153 °C.
Compound `O=C(NCc1ccc(F)c(F)c1)c1ccnc(N2CCN(Cc3ccc(F)cc3)C2=O)c1` registered a melting point of 182 to 183 °C.
Then `c1cc(-c2cn([C@H]3CN4CCC3CC4)nn2)ccn1`, with 150 °C.
For the compound `O=C1c2ccccc2C(=O)N1CCn1nnc(C(F)(F)F)n1`, the melting point was in the range of 98 to 99.5 °C.
In the case of `Cc1ccc(C(=O)Nc2ccc(-c3ccccc3)c(C(F)(F)F)c2)cc1Nc1nccc(-c2cccnc2)n1` it was 172 to 174 °C; in that of `CCCCS(=O)(=O)Nc1nc(CN2CCN(C(c3ccccc3)c3ccccc3)CC2)cs1`, 185 to 187 °C; in that of `CN1C(=O)c2cc(N)ccc2Oc2ncccc21`, 158 to 160 °C.
